Test results taken from EPA's ToxValDB 9.5 (doi:10.2903/j.efsa.2016.4518).

Experiments:
[1] = tested on: Colinus virginianus; conditions: acute, oral, mortality
[2] = tested on: Rattus norvegicus
[3] = tested on: Tagia sp.; conditions: chronic/long-term; duration: 56 days; mortality
[4] = tested on: Anas platyrhynchos; conditions: reproductive; duration: 20 weeks
[5] = tested on: Pimephales promelas; conditions: chronic/long-term; duration: 264 days; other
[6] = tested on: Apis mellifera; conditions: acute, mortality
[7] = tested on: Bibionidae; conditions: chronic/long-term; duration: 28 days
[8] = tested on: Canidae; conditions: oral, Dog Other, hematological
[9] = tested on: Hypoaspis aculeifer; conditions: chronic/long-term; duration: 21 days; mortality
[10] = tested on: Poecilus cupreus; assay: LR50; higher = less toxic; conditions: not reported; duration: 19 days; mortality
[11] = tested on: Typhlodromus pyri; assay: LR50; higher = less toxic; conditions: not reported; duration: 7 days; mortality

`CON(C)C(=O)Nc1ccc(Cl)c(Cl)c1` [Linuron] showed an LD50 ([1]; diet) of 121 mg/kg-day, an LD50 [1] of 314 mg/kg-day and an LD50 ([2]; acute, oral, mortality) of 1000 mg/kg. The LOAEL ([2]; chronic, duration: 2 years, other) was 1.3 mg/kg-day, the NOAEL ([2]; reproduction developmental, body weight) was 0.8 mg/kg-day and the NOEC [3] was 6.78 mg/kg. The NOAEL [4] was 13.9 mg/kg-day, the NOEC [5] was 97 µg/L and the LD50 ([6]; dermal) was > 97.8 µg/piece. The LD50 ([6]; oral, unspecified) was > 112 µg/piece, the NOEC [7] was 9.5 mg/kg and the NOAEL ([8]; chronic, duration: 1 years) was 0.9 mg/kg-day. For the same compound, the NOAEL ([8]; subchronic, duration: 90 days) was 0.9 mg/kg-day, the NOEC [9] was 3.39 mg/kg and the LR50 [10] was > 927 g/ha. It also gave an LR50 [11] of 42.7 g/ha.
